Laboratory results: US8829030B2 (priority 2002, dated 2014)

These compounds were tested against recombinant HCV RNA-dependent RNA polymerase (NS5B protein) (Hepatitis C virus genotype 1b, UniProt P26663) (assay: biochemical). Details: not given.
recombinant HCV RNA-dependent RNA polymerase (NS5B protein), sequence (P26663 2420-3010 limits assumed): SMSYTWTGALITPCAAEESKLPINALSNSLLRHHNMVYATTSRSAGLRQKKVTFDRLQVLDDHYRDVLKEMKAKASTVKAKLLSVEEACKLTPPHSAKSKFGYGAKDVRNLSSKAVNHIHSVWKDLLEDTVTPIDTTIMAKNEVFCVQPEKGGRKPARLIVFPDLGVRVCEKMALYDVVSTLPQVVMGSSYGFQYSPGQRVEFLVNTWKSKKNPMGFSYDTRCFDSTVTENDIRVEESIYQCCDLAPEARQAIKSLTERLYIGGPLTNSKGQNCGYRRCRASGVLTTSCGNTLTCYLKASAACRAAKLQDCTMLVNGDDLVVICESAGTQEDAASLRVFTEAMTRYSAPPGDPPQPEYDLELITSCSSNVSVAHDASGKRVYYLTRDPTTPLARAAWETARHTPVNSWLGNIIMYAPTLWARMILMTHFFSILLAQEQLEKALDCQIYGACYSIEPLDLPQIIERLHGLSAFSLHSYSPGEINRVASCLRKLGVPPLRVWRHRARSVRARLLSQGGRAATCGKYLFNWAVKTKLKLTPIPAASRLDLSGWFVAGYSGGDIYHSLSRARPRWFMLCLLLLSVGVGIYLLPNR
Parameters: species or system HCV-Bk strain
Compound `CC1CCC(C(=O)N(c2cc(-c3ccc(C#N)cc3)sc2C(=O)O)C2CCC(O)CC2)CC1` (centres unmarked) [Compound 61, 5-(4-cyano-phenyl)-3-[(4-hydroxy-cyclohexyl)-(4-methyl-cyclohexanecarbonyl)-amino]-thiophene-2-carboxylic acid] has an IC50 of less than 5 µM. `CC1CCC(C(=O)N(c2cc(-c3ccccc3)sc2C(=O)O)[C@H]2CC[C@@H](C(=O)O)CC2)CC1` (some centres unmarked) [Compound 78, 3-[(4-carboxy-cyclohexyl)-(4-methyl-cyclohexanecarbonyl)-amino]-5-phenyl-thiophene-2-carboxylic acid] gave an IC50 of less than 5 µM. Work on `CC1=CCC(C(=O)N(c2cc(-c3ccccc3)sc2C(=O)O)C(C)C)OC1` (centres unmarked) [Compound 30, 3-[isopropyl-(5-methyl-3,6-dihydro-2H-pyran-2-carbonyl)-amino]-5-phenyl-thiophene-2-carboxylic acid] yielded an IC50 of less than 5 µM. `CC1CCC(C(=O)N(c2cc(-c3ccccc3)sc2C(=O)O)[C@H]2CC[C@H](C(=O)O)CC2)CC1` (some centres unmarked) [Compound 76, 3-[(4-carboxy-cyclohexyl)-(4-methyl-cyclohexanecarbonyl)-amino]-5-phenyl-thiophene-2-carboxylic acid] showed an IC50 of less than 5 µM. Compound `CC1CCC(C(=O)N(c2cc(-c3ccccc3)sc2C(=O)O)C(C)C)OC1` (stereo not drawn) [Compound 29, 3-[Isopropyl-(cis-5-methyl-tetrahydro-pyran-2-carbonyl)-amino]-5-phenyl-thiophene-2-carboxylic acid] has an IC50 of 5 to 20 µM. With `CC1CCC(C(=O)N(c2cc(-c3ccccc3)sc2C(=O)O)C2CCOCC2)C(O)C1` (centres unmarked) [Compound 31, 3-[(2-hydroxy-4-methyl-cyclohexanecarbonyl)-(tetrahydro-pyran-4-yl)-amino]-5-phenyl-thiophene-2-carboxylic acid] the IC50 was less than 5 µM. `CC1CCC(C(=O)N(c2cc(-c3ccc(Cl)cc3)sc2C(=O)O)C2CCC(O)CC2)CC1` (centres unmarked) [Compound 59, 5-(4-chloro-phenyl)-3-[(4-hydroxy-cyclohexyl)-(4-methyl-cyclohexanecarbonyl)-amino]-thiophene-2-carboxylic acid] showed an IC50 of less than 5 µM. For `CC1CCC(C(=O)N(CC2CCCCN2)c2cc(-c3ccccc3)sc2C(=O)O)CC1` (centres unmarked) [Compound 2, 2-{[(2-carboxy-5-phenyl-thiophen-3-yl)-(4-methyl-cyclohexanecarbonyl)-amino]-methyl}-piperidinium; trifluoro-acetate], the IC50 was less than 5 µM. With `CN(C)N(C(=O)c1ccc(Cl)cc1Cl)c1cc(-c2ccccc2)sc1C(=O)O` [Compound 72, 3-[n-(2,4-dichloro-benzoyl)-N′,N′-dimethyl-hydrazino]-5-phenyl-thiophene-2-carboxylic acid] the IC50 was less than 5 µM. For `CC1CCC(C(=O)N(c2cc(-c3ccccc3)sc2C(=O)O)C2CCC[NH+](C)CC2)CC1` (centres unmarked) [Compound 49, 4-[(2-carboxy-5-phenyl-thiophen-3-yl)-(4-methyl-cyclohexanecarbonyl)-amino]-1-methyl-azepanium chloride], the IC50 was less than 5 µM. With `CCN(C(=O)c1ccc(C)cc1)c1cc(-c2ccccc2)sc1C(=O)O` [Compound 84, 3-[ethyl-(4-methyl-benzoyl)-amino]-5-phenyl-thiophene-2-carboxylic acid] the IC50 was less than 5 µM. In the case of `CC1CCC(C(=O)N(CC2CCCN(C)C2)c2cc(-c3ccc(F)cc3)sc2C(=O)O)CC1` (centres unmarked) [Compound 69, 5-(4-fluorophenyl)-((4-methyl-cyclohexanecarbonyl)-1-(methyl-piperidin-3-ylmethyl)-amino)-thiophene-2-carboxylic acid], the IC50 is reported as less than 5 µM. With `CCC(C)C(CN=[N+]=[N-])N(C(=O)c1ccc(Cl)cc1Cl)c1cc(-c2ccccc2)sc1C(=O)O` (centres unmarked) [Compound 18, 3-[(1-azidomethyl-2-methyl-butyl)-(2,4-dichloro-benzoyl)-amino]-5-phenyl-thiophene-2-carboxylic acid] the IC50 was less than 5 µM. With `CC1CCC(C(=O)N(Cc2cccnc2)c2cc(-c3ccccc3)sc2C(=O)O)CC1` (centres unmarked) [Compound 3, 3-[(4-methyl-cyclohexanecarbonyl)-pyridin-3-ylmethyl-amino]-5-phenyl-thiophene-2-carboxylic acid] the IC50 was less than 5 µM. In the case of `O=C(O)c1sc(-c2ccccc2)cc1N(CC1OCCO1)C(=O)c1ccc(Cl)cc1Cl` [Compound 7, 3-[(2,4-dichloro-benzoyl)-[1,3]dioxolan-2-ylmethyl-amino]-5-phenyl-thiophene-2-carboxylic acid], the IC50 is reported as less than 5 µM. For `CC(C)N(C(=O)[C@@H]1CC[C@@H](C)C[C@@H]1O)c1cc(-c2ccc(F)cc2)sc1C(=O)O` [Compound 24], the IC50 was less than 5 µM. `CNC(=O)N1CCC(N(C(=O)C2CCC(C)CC2)c2cc(-c3ccccc3)sc2C(=O)O)CC1` (centres unmarked) [Compound 71, 3-[(1-methylcarbamoyl-piperidin-4-yl)-(4-methyl-cyclohexanecarbonyl)-amino]-5-phenyl-thiophene-2-carboxylic acid] showed an IC50 of less than 5 µM. In the case of `C[C@H]1CC[C@H](C(=O)N(c2cc(-c3ccccc3)sc2C(=O)O)[C@H]2CCC[C@@H](O)C2)CC1` (stereo in doubt) [Compound 87, 3-[(3-hydroxy-cyclohexyl)-(4-methyl-cyclohexanecarbonyl)-amino]-5-phenyl-thiophene-2-carboxylic acid], the IC50 is reported as less than 5 µM. With `CC1CCC(C(=O)N(c2cc(-c3ccccc3)sc2C(=O)O)C(C)CN)CC1` (centres unmarked) [Compound 36, 3-[(2-amino-1-methyl-ethyl)-(4-methyl-cyclohexanecarbonyl)-amino]-5-phenyl-thiophene-2-carboxylic acid] the IC50 was less than 5 µM. Compound `CC1CCC(C(=O)N(c2cc(-c3ccccc3)sc2C(=O)O)C(C)CN=[N+]=[N-])CC1` (centres unmarked) [Compound 32, 3-[(2-azido-1-methyl-ethyl)-(4-methyl-cyclohexanecarbonyl)-amino]-5-phenyl-thiophene-2-carboxylic acid] has an IC50 of less than 5 µM. With `CC1CCC(C(=O)N(CC2OCCO2)c2cc(-c3ccccc3)sc2C(=O)O)CC1` (centres unmarked) [Compound 8, 3-[[1,3]dioxolan-2-ylmethyl-(4-methyl-cyclohexanecarbonyl)-amino]-5-phenyl-thiophene-2-carboxylic acid] the IC50 was less than 5 µM. With `COc1ccc(-c2cc(N(C(=O)C3CCC(C)CC3)C3CCC(O)CC3)c(C(=O)O)s2)cc1` (centres unmarked) [Compound 60, 3-[(4-hydroxy-cyclohexyl)-(4-methyl-cyclohexanecarbonyl)-amino]-5-(4-methoxy-phenyl)-thiophene-2-carboxylic acid] the IC50 was less than 5 µM. Work on `CC1=CCC(C(=O)N(c2cc(-c3ccccc3)sc2C(=O)O)C(C)C)CC1` (centres unmarked) [Compound 17, 3-[isopropyl-(4-methyl-cyclohex-3-enecarbonyl)-amino]-5-phenyl-thiophene-2-carboxylic acid] yielded an IC50 of less than 5 µM. In the case of `COc1ccc(-c2cc(N(C(=O)C3CCC(C)CC3O)C(C)C)c(C(=O)O)s2)cc1` (centres unmarked) [Compound 62, 3-[(2-hydroxy-4-methyl-cyclohexanecarbonyl)-isopropyl-amino]-5-(4-methoxy-phenyl)-thiophene-2-carboxylic acid], the IC50 is reported as less than 5 µM. `CC1CCC(C(=O)N(c2cc(-c3ccccc3)sc2C(=O)O)C2CCC(=O)CC2)CC1` (centres unmarked) [Compound 13, 3-[(4-methyl-cyclohexanecarbonyl)-(4-oxo-cyclohexyl)-amino]-5-phenyl-thiophene-2-carboxylic acid] showed an IC50 of less than 5 µM. In the case of `C[C@H]1CC[C@H](C(=O)N(c2cc(-c3ccccc3)sc2C(=O)O)[C@H]2CCC[C@H](O)C2)CC1` (stereo in doubt) [Compound 89, 3-[(3-hydroxy-cyclohexyl)-(4-methyl-cyclohexanecarbonyl)-amino]-5-phenyl-thiophene-2-carboxylic acid], the IC50 is reported as less than 5 µM. `CC1CCC(C(=O)N(c2cc(-c3ccccc3)sc2C(=O)O)N(C)C)CC1` (centres unmarked) [Compound 64, 3-[N′,N′-dimethyl-n-(4-methyl-cyclohexanecarbonyl)-hydrazino]-5-phenyl-thiophene-2-carboxylic acid] showed an IC50 of less than 5 µM. With `CC1=CCC(C(=O)N(c2cc(-c3ccc(F)cc3)sc2C(=O)O)C(C)C)CC1` (centres unmarked) [Compound 53, 5-(4-fluoro-phenyl)-3-[isopropyl-(4-methyl-cyclohex-3-enecarbonyl)-amino]-thiophene-2-carboxylic acid] the IC50 was less than 5 µM. Work on `CC(=O)c1ccc(-c2cc(N(C(=O)[C@H]3CC[C@H](C)CC3)[C@H]3CC[C@H](O)CC3)c(C(=O)O)s2)cc1` [Compound 85, 5-(4-acetyl-phenyl)-3-[(4-hydroxy-cyclohexyl)-(4-methyl-cyclohexanecarbonyl)-amino]-thiophene-2-carboxylic acid] yielded an IC50 of less than 5 µM. For `C[C@H]1CC[C@H](C(=O)N(c2cc(-c3ccccc3)sc2C(=O)O)C2CCSCC2)CC1` [Compound 34, 3-[(trans-4-Methyl-cyclohexanecarbonyl)-(tetrahydro-thiopyran-4-yl)-amino]-5-phenyl-thiophene-2-carboxylic acid], the IC50 was less than 5 µM.

Same assay, conditions: read-out: Activity (polymerase activity, IC50)
`CC1CCC(C(=O)N(c2cc(-c3cccc(F)c3)sc2C(=O)O)C(C)C)CC1` (centres unmarked) [Compound 5, 5-(3-fluoro-phenyl)-3-[isopropyl-(4-methyl-cyclohexanecarbonyl)-amino]-thiophene-2-carboxylic acid] gave an IC50 of less than 5 µM. `CNC(=O)N1CCC(N(C(=O)C2CCC(C)CC2)c2cc(-c3ccccc3)sc2C(=O)O)CC1` (centres unmarked) [Compound 74, 3-[(1-methylcarbamoyl-piperidin-4-yl)-(4-methyl-cyclohexanecarbonyl)-amino]-5-phenyl-thiophene-2-carboxylic acid] was tested, and the IC50 was less than 5 µM. For `CC1CCC(C(=O)N(c2cc(-c3ccccc3)sc2C(=O)O)C2CCNC(=O)CC2)CC1` (centres unmarked) [Compound 82, 3-[(4-methyl-cyclohexanecarbonyl)-(7-oxo-azepan-4-yl)-amino]-5-phenyl-thiophene-2-carboxylic acid], the IC50 was less than 5 µM. `CC1CCC(C(=O)N(c2cc(-c3ccccc3)sc2C(=O)O)C(C)CN=[N+]=[N-])CC1` (centres unmarked) [Compound 43, 3-[(2-azido-1-methyl-ethyl)-(4-methyl-cyclohexanecarbonyl)-amino]-5-phenyl-thiophene-2-carboxylic acid] was tested, and the IC50 was less than 5 µM. In the case of `CC1CCC(C(=O)N(c2cc(-c3ccccc3)sc2C(=O)O)C2CCN(C)C(=O)C2)CC1` (centres unmarked) [Compound 75, 3-[(4-methyl-cyclohexanecarbonyl)-(1-methyl-2-oxo-piperidin-4-yl)-amino]-5-phenyl-thiophene-2-carboxylic acid], the IC50 is reported as less than 5 µM.
